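The compound was tested at five concentrations on cells cultured in 96-well plates, with a 48-hour exposure period. GI50: concentration for 50% inhibition of growth. TGI: concentration producing complete growth inhibition.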
Tests used:
Assay in all cases: NCI tumour cell line growth inhibition, 48 h
NCI/ADR-RES ovarian = tested on: NCI/ADR-RES ovarian
OVCAR-3 ovarian = tested on: OVCAR-3 ovarian
UACC-257 melanoma = tested on: UACC-257 melanoma
K-562 leukemia = tested on: K-562 leukemia
786-0 renal = tested on: 786-0 renal
COLO 205 colon = tested on: COLO 205 colon
NCI-H460 lung = tested on: NCI-H460 lung
ACHN renal = tested on: ACHN renal
LOX IMVI melanoma = tested on: LOX IMVI melanoma
HCC-2998 colon = tested on: HCC-2998 colon
SF-268 CNS = tested on: SF-268 CNS
OVCAR-5 ovarian = tested on: OVCAR-5 ovarian
UACC-62 melanoma = tested on: UACC-62 melanoma
HCT-15 colon = tested on: HCT-15 colon
KM12 colon = tested on: KM12 colon
IGROV1 ovarian = tested on: IGROV1 ovarian
MCF7 breast = tested on: MCF7 breast
HOP-62 NSCLC = tested on: HOP-62 NSCLC
EKVX NSCLC = tested on: EKVX NSCLC
UO-31 renal = tested on: UO-31 renal
DU-145 prostate = tested on: DU-145 prostate
OVCAR-4 ovarian = tested on: OVCAR-4 ovarian
HL-60(TB) leukemia = tested on: HL-60(TB) leukemia
MDA-MB-231 breast = tested on: MDA-MB-231 breast
NCI-H23 lung = tested on: NCI-H23 lung
M14 melanoma = tested on: M14 melanoma
MDA-MB-435 = tested on: MDA-MB-435
HOP-92 NSCLC = tested on: HOP-92 NSCLC
SW-620 colon = tested on: SW-620 colon
SK-OV-3 ovarian = tested on: SK-OV-3 ovarian
SK-MEL-2 melanoma = tested on: SK-MEL-2 melanoma
HT29 colon = tested on: HT29 colon
NCI-H226 lung = tested on: NCI-H226 lung
CAKI-1 renal = tested on: CAKI-1 renal
SNB-75 CNS = tested on: SNB-75 CNS
SR leukemia = tested on: SR leukemia
SK-MEL-28 melanoma = tested on: SK-MEL-28 melanoma
PC-3 prostate = tested on: PC-3 prostate
U251 CNS = tested on: U251 CNS
SNB-19 CNS = tested on: SNB-19 CNS
OVCAR-8 ovarian = tested on: OVCAR-8 ovarian
SN12C renal = tested on: SN12C renal
T-47D breast = tested on: T-47D breast
SF-539 CNS = tested on: SF-539 CNS
CCRF-CEM leukemia = tested on: CCRF-CEM leukemia
BT-549 breast = tested on: BT-549 breast
SF-295 CNS = tested on: SF-295 CNS
TK-10 renal = tested on: TK-10 renal
SK-MEL-5 melanoma = tested on: SK-MEL-5 melanoma
A549 NSCLC = tested on: A549 NSCLC
NCI-H522 lung = tested on: NCI-H522 lung
MOLT-4 leukemia = tested on: MOLT-4 leukemia
MALME-3M melanoma = tested on: MALME-3M melanoma
A498 renal = tested on: A498 renal
RXF 393 renal = tested on: RXF 393 renal
HCT-116 colon = tested on: HCT-116 colon

Structure (SMILES): CN1CCN(c2ccc(Nc3nc(NCCCNS(=O)(=O)c4ccc(C(F)(F)F)cc4)c4sccc4n3)cc2)CC1
- GI50 (NCI/ADR-RES ovarian): 3.17 µM
- TGI (NCI/ADR-RES ovarian): 11.2 µM
- GI50 (OVCAR-3 ovarian): 2.74 µM
- TGI (OVCAR-3 ovarian): 6.89 µM
- GI50 (UACC-257 melanoma): 1.92 µM
- TGI (UACC-257 melanoma): 3.77 µM
- GI50 (K-562 leukemia): 1.84 µM
- TGI (K-562 leukemia): 5.52 µM
- GI50 (786-0 renal): 1.93 µM
- TGI (786-0 renal): 3.79 µM
- GI50 (COLO 205 colon): 2.09 µM
- TGI (COLO 205 colon): 4.12 µM
- GI50 (NCI-H460 lung): 2.28 µM
- TGI (NCI-H460 lung): 4.75 µM
- GI50 (ACHN renal): 2.69 µM
- TGI (ACHN renal): 7.44 µM
- GI50 (LOX IMVI melanoma): 1.64 µM
- TGI (LOX IMVI melanoma): 3.02 µM
- GI50 (HCC-2998 colon): 1.98 µM
- TGI (HCC-2998 colon): 3.98 µM
- GI50 (SF-268 CNS): 2.39 µM
- TGI (SF-268 CNS): 9.5 µM
- GI50 (OVCAR-5 ovarian): 3.26 µM
- TGI (OVCAR-5 ovarian): 13.4 µM
- GI50 (UACC-62 melanoma): 1.68 µM
- TGI (UACC-62 melanoma): 3.11 µM
- GI50 (HCT-15 colon): 1.58 µM
- TGI (HCT-15 colon): 3.08 µM
- GI50 (KM12 colon): 4.3 µM
- TGI (KM12 colon): 20.9 µM
- GI50 (IGROV1 ovarian): 2.38 µM
- TGI (IGROV1 ovarian): 6.9 µM
- GI50 (MCF7 breast): 1.74 µM
- TGI (MCF7 breast): 3.32 µM
- GI50 (HOP-62 NSCLC): 2.6 µM
- TGI (HOP-62 NSCLC): 7.74 µM
- GI50 (EKVX NSCLC): 3.73 µM
- TGI (EKVX NSCLC): 14.6 µM
- GI50 (UO-31 renal): 1.69 µM
- TGI (UO-31 renal): 3.68 µM
- GI50 (DU-145 prostate): 5.11 µM
- TGI (DU-145 prostate): 16.8 µM
- GI50 (OVCAR-4 ovarian): 2.62 µM
- TGI (OVCAR-4 ovarian): 8.12 µM
- GI50 (HL-60(TB) leukemia): 1.78 µM
- TGI (HL-60(TB) leukemia): 3.87 µM
- GI50 (MDA-MB-231 breast): 1.88 µM
- TGI (MDA-MB-231 breast): 3.51 µM
- GI50 (NCI-H23 lung): 3.41 µM
- TGI (NCI-H23 lung): 11.5 µM
- GI50 (M14 melanoma): 1.89 µM
- TGI (M14 melanoma): 3.59 µM
- GI50 (MDA-MB-435): 1.79 µM
- TGI (MDA-MB-435): 3.24 µM
- GI50 (HOP-92 NSCLC): 1.91 µM
- TGI (HOP-92 NSCLC): 6.29 µM
- GI50 (SW-620 colon): 1.89 µM
- TGI (SW-620 colon): 3.58 µM
- GI50 (SK-OV-3 ovarian): 12.7 µM
- TGI (SK-OV-3 ovarian): 27.4 µM
- GI50 (SK-MEL-2 melanoma): 1.78 µM
- TGI (SK-MEL-2 melanoma): 3.46 µM
- GI50 (HT29 colon): 2.11 µM
- TGI (HT29 colon): 4.89 µM
- GI50 (NCI-H226 lung): 9.09 µM
- TGI (NCI-H226 lung): 35 µM
- GI50 (CAKI-1 renal): 3.05 µM
- TGI (CAKI-1 renal): 11.3 µM
- GI50 (SNB-75 CNS): 14.5 µM
- TGI (SNB-75 CNS): 28 µM
- GI50 (SR leukemia): 2.06 µM
- TGI (SR leukemia): 6.39 µM
- GI50 (SK-MEL-28 melanoma): 1.63 µM
- TGI (SK-MEL-28 melanoma): 3.02 µM
- GI50 (PC-3 prostate): 4.27 µM
- TGI (PC-3 prostate): 20.2 µM
- GI50 (U251 CNS): 2.62 µM
- TGI (U251 CNS): 7.06 µM
- GI50 (SNB-19 CNS): 3.6 µM
- TGI (SNB-19 CNS): 12.9 µM
- GI50 (OVCAR-8 ovarian): 3.58 µM
- TGI (OVCAR-8 ovarian): 21.8 µM
- GI50 (SN12C renal): 2.22 µM
- TGI (SN12C renal): 6.02 µM
- GI50 (T-47D breast): 1.89 µM
- TGI (T-47D breast): 4.09 µM
- GI50 (SF-539 CNS): 1.68 µM
- TGI (SF-539 CNS): 3.05 µM
- GI50 (CCRF-CEM leukemia): 3.42 µM
- TGI (CCRF-CEM leukemia): 17 µM
- GI50 (BT-549 breast): 1.86 µM
- TGI (BT-549 breast): 3.68 µM
- GI50 (SF-295 CNS): 1.81 µM
- TGI (SF-295 CNS): 3.51 µM
- GI50 (TK-10 renal): 2.78 µM
- TGI (TK-10 renal): 8.39 µM
- GI50 (SK-MEL-5 melanoma): 1.78 µM
- TGI (SK-MEL-5 melanoma): 3.2 µM
- GI50 (A549 NSCLC): 3.71 µM
- TGI (A549 NSCLC): 21.5 µM
- GI50 (NCI-H522 lung): 1.77 µM
- TGI (NCI-H522 lung): 3.7 µM
- GI50 (MOLT-4 leukemia): 2.13 µM
- TGI (MOLT-4 leukemia): 7.32 µM
- GI50 (MALME-3M melanoma): 1.72 µM
- TGI (MALME-3M melanoma): 3.13 µM
- GI50 (A498 renal): 2.16 µM
- TGI (A498 renal): 3.99 µM

Structure (SMILES): CCOC(=O)c1c(NC(=O)c2cccc(C(F)(F)F)c2)sc2c1CCC(=O)C2
- GI50 (NCI/ADR-RES ovarian): 3.06 µM
- TGI (NCI/ADR-RES ovarian): > 100 µM
- GI50 (OVCAR-3 ovarian): 3.53 µM
- TGI (OVCAR-3 ovarian): > 100 µM
- GI50 (UACC-257 melanoma): > 100 µM
- TGI (UACC-257 melanoma): > 100 µM
- GI50 (K-562 leukemia): 0.488 µM
- TGI (K-562 leukemia): > 100 µM
- GI50 (786-0 renal): 3.54 µM
- TGI (786-0 renal): > 100 µM
- GI50 (RXF 393 renal): 3.36 µM
- TGI (RXF 393 renal): 9.03 µM
- GI50 (NCI-H460 lung): 2.66 µM
- TGI (NCI-H460 lung): > 100 µM
- GI50 (ACHN renal): 2.65 µM
- TGI (ACHN renal): > 100 µM
- GI50 (HCT-116 colon): 0.49 µM
- TGI (HCT-116 colon): > 100 µM
- GI50 (LOX IMVI melanoma): 0.633 µM
- TGI (LOX IMVI melanoma): > 100 µM
- GI50 (SF-268 CNS): 4.17 µM
- TGI (SF-268 CNS): > 100 µM
- GI50 (OVCAR-5 ovarian): 2.12 µM
- TGI (OVCAR-5 ovarian): > 100 µM
- GI50 (UACC-62 melanoma): 2.11 µM
- TGI (UACC-62 melanoma): > 100 µM
- GI50 (HCT-15 colon): 0.652 µM
- TGI (HCT-15 colon): > 100 µM
- GI50 (KM12 colon): 2.88 µM
- TGI (KM12 colon): > 100 µM
- GI50 (IGROV1 ovarian): 2.4 µM
- TGI (IGROV1 ovarian): > 100 µM
- GI50 (HOP-62 NSCLC): 5.2 µM
- TGI (HOP-62 NSCLC): > 100 µM
- GI50 (DU-145 prostate): > 100 µM
- TGI (DU-145 prostate): > 100 µM
- GI50 (OVCAR-4 ovarian): 3.14 µM
- TGI (OVCAR-4 ovarian): > 100 µM
- GI50 (HL-60(TB) leukemia): 1.9 µM
- TGI (HL-60(TB) leukemia): > 100 µM
- GI50 (MDA-MB-231 breast): 3.5 µM
- TGI (MDA-MB-231 breast): > 100 µM
- GI50 (NCI-H23 lung): 3 µM
- TGI (NCI-H23 lung): > 100 µM
- GI50 (SW-620 colon): 0.445 µM
- TGI (SW-620 colon): > 100 µM
- GI50 (SR leukemia): 0.526 µM
- TGI (SR leukemia): > 100 µM
- GI50 (PC-3 prostate): 1.31 µM
- TGI (PC-3 prostate): > 100 µM
- GI50 (U251 CNS): 0.479 µM
- TGI (U251 CNS): > 100 µM
- GI50 (SNB-19 CNS): 1.53 µM
- TGI (SNB-19 CNS): > 100 µM
- GI50 (T-47D breast): 2.12 µM
- TGI (T-47D breast): > 100 µM
- GI50 (CCRF-CEM leukemia): 1.03 µM
- TGI (CCRF-CEM leukemia): > 100 µM
- GI50 (BT-549 breast): 1.61 µM
- TGI (BT-549 breast): > 100 µM
- GI50 (SF-295 CNS): 3.08 µM
- TGI (SF-295 CNS): > 100 µM
- GI50 (TK-10 renal): 5.09 µM
- TGI (TK-10 renal): > 100 µM
- GI50 (NCI-H522 lung): 0.514 µM
- TGI (NCI-H522 lung): 6.81 µM
- GI50 (MALME-3M melanoma): > 100 µM
- TGI (MALME-3M melanoma): > 100 µM
- GI50 (A498 renal): > 100 µM
- TGI (A498 renal): > 100 µM

From PubChem BioAssay (NCI)
